# Assay results published in publication PMC11079024, “Identification of a family of species-selective complex I inhibitors as potential anthelmintics” (Nature Communications, 2024).
# pIC50: −log10 of the molar value. Read-outs that look alike come from different tables or passages of the source.
# Experiments:
# [1] = test system: ben-1 mutant (ECA882) C. elegans; assay: microbe, parasite or virus in culture; settings: Caenorhabditis elegans; for viability at 1 µM / viability at 2 µM / viability at 3.9 µM / viability at 15.6 µM / viability at 31.3 µM / viability at 62.5 µM / viability at 125 µM / viability at 250 µM / viability at 500 µM / viability at 1000 µM: read-out: C. elegans ben-1(e1880) development/viability
# In short: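 Development and viability scored from single well images as total worm pixels divided by the matching DMSO control value, mean of ≥3 replicates. Worms added as synchronized L1s to HB101 suspension in liquid NGM with compound (1% DMSO v/v), grown 6 days at 20 °C with shaking.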
# [2] = molecular target: B. taurus (heart) complex I (Bos taurus, UniProt P03887+P17694+P42026); assay: biochemical; assay type: biochemical; settings: for pIC50: B. taurus heart mitochondria, estimated from fitted dose-response curves, read-out: B. taurus Complex I IC50; for activity at 0.0001 µM / activity at 0.0005 µM / activity at 0.001 µM / activity at 0.0025 µM / activity at 0.005 µM / activity at 0.013 µM / activity at 0.025 µM / activity at 0.063 µM / activity at 0.125 µM / activity at 0.313 µM / activity at 0.625 µM / activity at 1.5 µM / activity at 3 µM / activity at 15 µM / activity at 37.5 µM / activity at 75 µM: read-out: B. taurus mitochondrial complex I activity; for Log IC50 B. taurus complex I: log10 of IC50 in µM, B. taurus mitochondria
# B. taurus (heart) complex I, sequence (P03887 whole entry): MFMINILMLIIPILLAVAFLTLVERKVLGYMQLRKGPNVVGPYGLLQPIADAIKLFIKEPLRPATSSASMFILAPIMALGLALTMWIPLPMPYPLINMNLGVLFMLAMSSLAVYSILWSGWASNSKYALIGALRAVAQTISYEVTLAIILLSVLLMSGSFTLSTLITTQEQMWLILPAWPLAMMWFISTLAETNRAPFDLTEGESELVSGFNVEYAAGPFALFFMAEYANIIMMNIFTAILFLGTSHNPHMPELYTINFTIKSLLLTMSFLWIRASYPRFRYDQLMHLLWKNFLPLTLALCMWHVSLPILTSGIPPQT
# B. taurus (heart) complex I, sequence (P17694 34-463): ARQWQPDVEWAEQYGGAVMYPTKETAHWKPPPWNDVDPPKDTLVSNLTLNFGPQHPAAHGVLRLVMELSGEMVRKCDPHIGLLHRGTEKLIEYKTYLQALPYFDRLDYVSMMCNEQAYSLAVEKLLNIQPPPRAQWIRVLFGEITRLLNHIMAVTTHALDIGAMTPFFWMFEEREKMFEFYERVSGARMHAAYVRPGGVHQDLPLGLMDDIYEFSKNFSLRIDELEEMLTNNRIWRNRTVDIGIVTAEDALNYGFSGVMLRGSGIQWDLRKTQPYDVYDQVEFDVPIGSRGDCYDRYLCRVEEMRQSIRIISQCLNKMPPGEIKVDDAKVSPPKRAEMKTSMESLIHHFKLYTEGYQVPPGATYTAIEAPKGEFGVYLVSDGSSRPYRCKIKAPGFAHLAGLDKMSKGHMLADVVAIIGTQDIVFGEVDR
# B. taurus (heart) complex I, sequence (P42026 38-216): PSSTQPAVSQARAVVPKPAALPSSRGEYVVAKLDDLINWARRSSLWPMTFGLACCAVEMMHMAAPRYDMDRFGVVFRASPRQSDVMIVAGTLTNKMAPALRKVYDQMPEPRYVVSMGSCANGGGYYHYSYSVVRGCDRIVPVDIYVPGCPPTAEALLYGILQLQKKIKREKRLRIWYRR
# In short: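 Complex I activity followed as DCIP reduction (600 nm, 30 s reads, 15 min) with 80 μM NADH and 60 μM decylubiquinone in 25 mM KPi pH 7.5 containing 2 μM antimycin A and 2 mM KCN. Freeze-thawed mouse or bovine heart mitochondria at 0.2 mg/mL; initial-rate percent of solvent control, single-point 100 μM or dose-response.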
# L1 wild-type C. elegans = settings: for Screen "Hit": 50 μM
# in vitro = settings: human; for viability at 2 days, 3.13 µM / viability at 2 days, 6.25 µM / viability at 2 days, 12.5 µM / viability at 2 days, 25 µM / viability at 2 days, 100 µM / viability at 2 days, 50 µM: HEK293 cells (Flp-In-293); for viability at 2 days, 3.13 µM / viability at 2 days, 6.25 µM / viability at 2 days, 12.5 µM / viability at 2 days, 25 µM / viability at 2 days, 100 µM / viability / viability at 2 days, 50 µM: HEK293 viability
# [3] = read-out: C. elegans (ben-1) Development & Viability Assay LC50
# [4] = read-out: C. elegans ben-1 log10 LC50 (converted)
# [5] = hit = relative motility below 0.25 3 hours after removal of KCN
# [6] = Dose 0.2 µM, mean of at least three biological replicates
structure (smiles),measurement,setting,value
Cc1ccc(OCCn2cnc3ccccc32)c(C)c1 [Compound 7706808],LC50,[1]; [3],> 1000 µM
same,viability at 1 µM,[1],100%
same,viability at 2 µM,[1],96.2%
same,viability at 3.9 µM,[1],97%
same,viability at 15.6 µM,[1],98.9%
same,viability at 31.3 µM,[1],97.3%
same,viability at 62.5 µM,[1],93.8%
same,viability at 125 µM,[1],89.7%
same,viability at 250 µM,[1],94.6%
same,viability at 500 µM,[1],76.7%
same,viability at 1000 µM,[1],69.9%
same,LC50,[1]; read-out: C. elegans ben-1 LC50,> 500 µM
same,LC50,[1]; [4],> 500 µM
same,pIC50,[2],5.07
same,activity at 0.0001 µM,[2],97.5%
same,activity at 0.0005 µM,[2],94.8%
same,activity at 0.001 µM,[2],99.1%
same,activity at 0.0025 µM,[2],97%
same,activity at 0.005 µM,[2],95.6%
same,activity at 0.013 µM,[2],97.8%
same,activity at 0.025 µM,[2],90.5%
same,activity at 0.063 µM,[2],96%
same,activity at 0.125 µM,[2],93.5%
same,activity at 0.313 µM,[2],91.4%
same,activity at 0.625 µM,[2],82.8%
same,activity at 1.5 µM,[2],81.2%
same,activity at 3 µM,[2],69.4%
same,activity at 15 µM,[2],30.6%
same,activity at 37.5 µM,[2],11.4%
same,activity at 75 µM,[2],6.37%
same,Log IC50 B. taurus complex I,[2],0.93 µM
same,"Screen ""Hit""",L1 wild-type C. elegans; [5],Y (hits were identified as compounds that reduced relative motility below 0.25 (75% reduction))
same,C. elegans KCN Survival,L1 wild-type C. elegans; [6],0.957
same,C. elegans KCN Survival,L1 wild-type C. elegans; Dose 0.39 µM,1.031
same,C. elegans KCN Survival,L1 wild-type C. elegans; Dose 1.56 µM,1.000
same,C. elegans KCN Survival,L1 wild-type C. elegans; Dose 3.13 µM,0.998
same,C. elegans KCN Survival,L1 wild-type C. elegans; Dose 6.25 µM,0.894
same,C. elegans KCN Survival,L1 wild-type C. elegans; Dose 12.5 µM,0.483
same,C. elegans KCN Survival,L1 wild-type C. elegans; Dose 25 µM,0.132
same,C. elegans KCN Survival,L1 wild-type C. elegans; Dose 50 µM,0.135
same,C. elegans KCN Survival,L1 wild-type C. elegans; Dose 100 µM,0.199
same,CC50 at 2 days,in vitro,89.1 µM
same,"viability at 2 days, 3.13 µM",in vitro,100%
same,"viability at 2 days, 6.25 µM",in vitro; Dose 6.25 µM,100%
same,"viability at 2 days, 12.5 µM",in vitro,100%
same,"viability at 2 days, 25 µM",in vitro,100%
same,"viability at 2 days, 100 µM",in vitro,36.2%
same,viability,in vitro; Dose 50 µM,94.6%
Cc1ccccc1OCCCCn1cnc2ccccc21 [Compound 7732524],LC50,[1]; [3],58.5 µM
same,viability at 15.6 µM,[1],100%
same,viability at 31.3 µM,[1],97%
same,viability at 62.5 µM,[1],42.4%
same,viability at 125 µM,[1],3.7%
same,viability at 250 µM,[1],3.3%
same,viability at 500 µM,[1],1.6%
same,viability at 1000 µM,[1],1.3%
same,LC50,[1]; [4],58.5 µM
same,pIC50,[2],6.51
same,activity at 0.0001 µM,[2],96.6%
same,activity at 0.0005 µM,[2],102%
same,activity at 0.001 µM,[2],97%
same,activity at 0.0025 µM,[2],93.8%
same,activity at 0.005 µM,[2],78.2%
same,activity at 0.013 µM,[2],91.3%
same,activity at 0.025 µM,[2],85.2%
same,activity at 0.063 µM,[2],72.1%
same,activity at 0.125 µM,[2],69.1%
same,activity at 0.313 µM,[2],48.9%
same,activity at 0.625 µM,[2],30.4%
same,activity at 1.5 µM,[2],15.7%
same,activity at 3 µM,[2],9.12%
same,activity at 15 µM,[2],0.75%
same,activity at 37.5 µM,[2],1.46%
same,activity at 75 µM,[2],1.41%
same,Log IC50 B. taurus complex I,[2],-0.51 µM
same,"Screen ""Hit""","L1 wild-type C. elegans; KCN survival assay, hit = relative motility below 0.25",Y (hits were identified as compounds that reduced relative motility below 0.25 (75% reduction))
same,C. elegans KCN Survival,L1 wild-type C. elegans; [6],1.002
same,C. elegans KCN Survival,L1 wild-type C. elegans; Dose 0.39 µM,0.963
same,C. elegans KCN Survival,L1 wild-type C. elegans; Dose 1.56 µM,0.887
same,C. elegans KCN Survival,L1 wild-type C. elegans; Dose 3.13 µM,0.828
same,C. elegans KCN Survival,L1 wild-type C. elegans; Dose 6.25 µM,0.509
same,C. elegans KCN Survival,L1 wild-type C. elegans; Dose 12.5 µM,0.007
same,C. elegans KCN Survival,L1 wild-type C. elegans; Dose 25 µM,0.000
same,C. elegans KCN Survival,L1 wild-type C. elegans; Dose 50 µM,0.000
same,C. elegans KCN Survival,L1 wild-type C. elegans; Dose 100 µM,0.000
same,CC50 at 2 days,"in vitro; HEK293 Cell Viability Assay LC50, HEK293 cells, estimated from fitted dose-response curves, mean of at least two biological replicates",49.9 µM
same,"viability at 2 days, 3.13 µM",in vitro,100%
same,"viability at 2 days, 6.25 µM",in vitro; Dose 6.25 µM,100%
same,"viability at 2 days, 12.5 µM",in vitro,100%
same,"viability at 2 days, 25 µM",in vitro,93.2%
same,"viability at 2 days, 50 µM",in vitro; Dose 50 µM,48.1%
same,"viability at 2 days, 100 µM",in vitro,13.7%
Cc1ccccc1OCCCn1c(C)nc2ccccc21 [Compound 7916923],LC50,[1]; [3],142 µM
same,viability at 1 µM,[1],95.8%
same,viability at 2 µM,[1],94.9%
same,viability at 3.9 µM,[1],93.4%
same,viability at 15.6 µM,[1],96%
same,viability at 31.3 µM,[1],89.5%
same,viability at 62.5 µM,[1],86.2%
same,viability at 125 µM,[1],67.3%
same,viability at 250 µM,[1],2.7%
same,viability at 500 µM,[1],2.9%
same,viability at 1000 µM,[1],2.3%
same,LC50,[1]; [4],143 µM
same,pIC50,[2],5.18
same,activity at 0.0001 µM,[2],98.7%
same,activity at 0.0005 µM,[2],101%
same,activity at 0.001 µM,[2],103%
same,activity at 0.0025 µM,[2],101%
same,activity at 0.005 µM,[2],107%
same,activity at 0.013 µM,[2],99.6%
same,activity at 0.025 µM,[2],102%
same,activity at 0.063 µM,[2],104%
same,activity at 0.125 µM,[2],90.7%
same,activity at 0.313 µM,[2],96.6%
same,activity at 0.625 µM,[2],92.7%
same,activity at 1.5 µM,[2],79.4%
same,activity at 3 µM,[2],70.6%
same,activity at 15 µM,[2],24.7%
same,activity at 37.5 µM,[2],6.64%
same,activity at 75 µM,[2],2.1%
same,Log IC50 B. taurus complex I,[2],0.82 µM
same,"Screen ""Hit""",L1 wild-type C. elegans; [5],Y (hits were identified as compounds that reduced relative motility below 0.25 (75% reduction))
same,C. elegans KCN Survival,L1 wild-type C. elegans; [6],0.930
same,C. elegans KCN Survival,L1 wild-type C. elegans; Dose 0.39 µM,1.083
same,C. elegans KCN Survival,L1 wild-type C. elegans; Dose 1.56 µM,1.052
same,C. elegans KCN Survival,L1 wild-type C. elegans; Dose 3.13 µM,0.985
same,C. elegans KCN Survival,L1 wild-type C. elegans; Dose 6.25 µM,0.888
same,C. elegans KCN Survival,L1 wild-type C. elegans; Dose 12.5 µM,0.491
same,C. elegans KCN Survival,L1 wild-type C. elegans; Dose 25 µM,0.124
same,C. elegans KCN Survival,L1 wild-type C. elegans; Dose 50 µM,0.136
same,C. elegans KCN Survival,L1 wild-type C. elegans; Dose 100 µM,0.168
same,CC50 at 2 days,in vitro,45.5 µM
same,"viability at 2 days, 3.13 µM",in vitro,84.6%
same,"viability at 2 days, 12.5 µM",in vitro,95.2%
same,"viability at 2 days, 25 µM",in vitro,73.1%
same,"viability at 2 days, 50 µM",in vitro; Dose 50 µM,41.6%
same,"viability at 2 days, 100 µM",in vitro,9.6%
same,viability,in vitro; Dose 6.25 µM,94.9%
